Assay type in all cases: in vivo, human
One series concerns depression. Put plainly: case report: depressed person, Hamilton Depression Rating Scale. As to conditions: 1 g/day 96% ethyl-EPA, after about 3-4 weeks. The text has this:
Our attention was unexpectedly drawn to the importance of highly purified EPA by our experience with a patient, a depressed women aged 35 years. […] […] […] They continued the EPA-rich oil for a further two months without any further change. […] As a result of this, and of thinking about the evidence relating to the binding of EPA to FACL-4 and presumably to other proteins, we came to the conclusion that it was important for clinical efficacy to administer EPA in a highly purified form for maximum clinical effectiveness.

The test system of series [1] is panic and anxiety disorders. Put plainly: case histories: panic and anxiety disorders. How it is done:
We have now treated several patients who have panic and anxiety disorders with purified ethyl-EPA with excellent effect. Three case histories follow. A person was disabled as a result of frequent and uncontrollable panic attacks and palpitations. […] They were then given a dose of 2 g per day of ethyl EPA as four 500 mg capsules. […] A person had suffered from mild anxiety and panic attacks for most of their life but these had become much worse over the previous few years in association with various problems with their children. Anxiolytics and antidepressants had only modest effects and their palpitations were uncontrolled even by relatively high doses of beta-blockers. Again they were treated with ethyl-EPA over a period of four months. […] The third patient was a housewife who had been through two divorces and was now in a long-term relationship. They had several panic attacks every week, sometimes in the middle of the night, and always accompanied by strong palpitations which were very worrying for them. These panic attacks were accompanied by depression. They were very reluctant to go out for fear of having an attack and this seriously disrupted their life. Again, antidepressants, beta-blockers and anxiolytics had had only limited beneficial effects. […] Sometimes, they felt that an attack of palpitations might be coming on but it rarely materialised. As a result, they felt increasing confidence and was able to resume a much more normal life.

Series [2] has as its system schizophrenia. Put plainly: case history: schizophrenia, E-EPA added to clozapine. As to conditions: 2 g/day in addition to clozapine 900 mg/day. From the text: This mechanism is thought to be responsible for their rapid effects on the so-called “positive” symptoms of schizophrenia (such as hallucinations, delusions and thought disorder). […] The D2 blocking action is also responsible for many of the adverse effects of these drugs, which include extrapyramidal movement disorders, excess prolactin secretion, and tardive dyskinesias. Examples of widely used drugs in this class include chlorpromazine, thioridazine, haloperidol, pimozide, flupenthixol and sulpiride.
These may include blockade of one or more of the other dopamine receptors such as D1, D3 or D4, and also usually including blockade of one or more classes of serotonin receptors. […] They may also have actions at other receptors, including histamine, glutamate and acetyl choline receptors.
The patient was treated with clozapine, eventually reaching a maximum dose of 900 mg/day.
E-EPA in a dose of 2 g/day was then administered in addition to clozapine.

Series [3] has as its system schizophrenia. Put plainly: case history: schizophrenia, ethyl-EPA added to haloperidol. As to conditions: 4 g/day in addition to haloperidol, eight weeks. The text has this: A person had become ill with schizophrenia. They had florid hallucinations and paranoia, but also withdrew themself from most of their friendships and lived alone. […] They lived alone, ceased to communicate with most of their friends, and went around to town alone and muttering to […]. Their psychiatrist heard about ethyl-EPA and decided to try it in addition to the standard drug. After eight weeks on treatment with 4 g/day their outlook was transformed. […] They were even persuaded to go on holiday with their family where they enjoyed themself and made new friends. The EPA therefore reversed the extreme withdrawal which appeared to have been exaggerated by haloperidol.

As to `CC/C=C\C/C=C\C/C=C\C/C=C\C/C=C\CCCC(=O)OCC` [ethyl-EPA], in the series on depression, the Hamilton scores result is “below 6”. For the same compound, the “panic attacks and palpitations” value in series [1] (housewife, four months) was “dramatic reduction in their panic attacks and palpitations”. The “panic attacks and palpitations” value in series [1] (person, 2 g per day, three months) was “almost absent”. The “anxiety and panic attacks” value in series [1] (person, four months) is listed as “much less severe”. Further, in the series on schizophrenia [2], the clozapine-induced hypersalivation result is “considerably reduced” and the “effect on schizophrenic illness” value is “dramatic within two weeks”. In the series with schizophrenia [3], the residual hallucinations result was “residual hallucinations disappeared”.
